Assay results as given in ChEMBL document CHEMBL1133556, “Carbonic anhydrase inhibitors: water-soluble 4-sulfamoylphenylthioureas as topical intraocular pressure-lowering agents with long-lasting effects” (J Med Chem, 2000).
≈ marks a conversion by molar mass, not a printed value. Residues, ends and D or L forms follow the SMILES beside them. *: point of attachment. X1 = NS(=O)(=O)c1ccc(NC(=S)*)cc1

Target: T1, Carbonic anhydrase 4 (Bos taurus, UniProt Q95323)
T1 sequence (Q95323 whole entry): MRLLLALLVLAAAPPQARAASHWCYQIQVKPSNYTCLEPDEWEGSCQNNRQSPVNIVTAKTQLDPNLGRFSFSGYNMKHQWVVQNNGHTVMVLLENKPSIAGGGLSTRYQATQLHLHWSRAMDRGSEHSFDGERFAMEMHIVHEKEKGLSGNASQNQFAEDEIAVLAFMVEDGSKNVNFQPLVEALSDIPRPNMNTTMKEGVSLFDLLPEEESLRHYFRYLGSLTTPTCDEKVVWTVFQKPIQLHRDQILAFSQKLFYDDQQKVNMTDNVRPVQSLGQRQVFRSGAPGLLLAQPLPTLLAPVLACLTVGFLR
Experiment: not given
Conditions: not given

Q: With `CSCCC(/N=C(\S)Nc1ccc(S(N)(=O)=O)cc1)C(=O)O` (configuration not stated) as the compound, how does the Ki read?
A: 13 nM

Q: With `NS(=O)(=O)c1ccc(NC(=S)N[C@@H](CC(=O)O)C(=O)N[C@@H](CC(=O)O)C(=O)N[C@@H](CC(=O)O)C(=O)N[C@@H](CC(=O)O)C(=O)O)cc1` (X1-DDDD-OH) as the compound, how does the Ki read?
A: 27 nM

Q: For `NS(=O)(=O)c1ccc(N/C(S)=N\CCc2ccccn2)cc1`, which Ki is on record?
A: 77 nM

Q: With `CC(C)CC(/N=C(\S)Nc1ccc(S(N)(=O)=O)cc1)C(=O)NCC(=O)O` (configuration not stated) as the compound, how does the Ki read?
A: 13 nM

Q: With `NS(=O)(=O)c1ccc(N/C(S)=N\CCc2c[nH]cn2)cc1` as the compound, how does the Ki read?
A: 56 nM

Q: With `NS(=O)(=O)c1ccc(NC(=S)NC(Cc2cnc[nH]2)C(=O)NCC(=O)O)cc1` (configuration not stated) as the compound, how does the Ki read?
A: 6 nM

Q: Which Ki does the source give for `NS(=O)(=O)c1ccc(N/C(S)=N\c2cccc(C(=O)O)c2)cc1` here?
A: 36 nM

Q: With `NS(=O)(=O)c1ccc(N/C(S)=N\Cc2ccccn2)cc1` as the compound, how does the Ki read?
A: 76 nM

Q: For `NS(=O)(=O)c1ccc(N/C(S)=N\c2ccccc2C(=O)O)cc1`, which Ki is on record?
A: 29 nM

Q: Which Ki does the source give for `CC(C)C(/N=C(\S)Nc1ccc(S(N)(=O)=O)cc1)C(=O)O` (configuration not stated) here?
A: 13 nM

Q: With `NS(=O)(=O)c1ccc(N/C(S)=N\CCC(=O)O)cc1` as the compound, how does the Ki read?
A: 35 nM

Q: With `NS(=O)(=O)c1ccc(NC(S)=NC(Cc2c[nH]cn2)C(=O)NC(Cc2ccccc2)C(=O)O)cc1` (configuration not stated) as the compound, how does the Ki read?
A: 9 nM

Q: For `NS(=O)(=O)c1ccc(N/C(S)=N\c2ccc(C(=O)O)cc2)cc1`, which Ki is on record?
A: 40 nM

Q: Which Ki does the source give for `NS(=O)(=O)c1ccc(NC(=S)NC(CC(=O)O)C(=O)NC(CC(=O)O)C(=O)O)cc1` (configuration not stated) here?
A: 32 nM

Q: For `CC(O)C(NC(=S)Nc1ccc(S(N)(=O)=O)cc1)C(=O)O` (configuration not stated), which Ki is on record?
A: 16 nM

Q: Which Ki does the source give for `NS(=O)(=O)c1ccc(NC(=S)NC(CCC(=O)O)C(=O)O)cc1` (configuration not stated) here?
A: 19 nM

Q: For `NS(=O)(=O)c1ccc(NC(=S)NCC(=O)NCC(=O)O)cc1`, which Ki is on record?
A: 32 nM

Q: For `NS(=O)(=O)c1ccc(N/C(S)=N/C(Cc2c[nH]c3ccccc23)C(=O)O)cc1` (configuration not stated), which Ki is on record?
A: 24 nM

Q: With `NC(=O)CCC(NC(=S)Nc1ccc(S(N)(=O)=O)cc1)C(=O)O` (configuration not stated) as the compound, how does the Ki read?
A: 23 nM

Species on record: Oryctolagus cuniculus
Experiment: not given
Conditions: not given

Q: For `NS(=O)(=O)c1ccc(N/C(S)=N\c2ccccc2C(=O)O)cc1`, which “Delta IOP” value is on record?
A: 4.3 mmHg

Target: Carbonic anhydrase 2 (Homo sapiens, UniProt P00918)
Experiment: not given
Conditions: not given

Q: For `NS(=O)(=O)c1ccc(N=C=S)cc1`, which Ki is on record?
A: 185 nM

Q: For `CSCCC(/N=C(\S)Nc1ccc(S(N)(=O)=O)cc1)C(=O)O` (configuration not stated), which Ki is on record?
A: 4 nM

Q: Which Ki does the source give for `NS(=O)(=O)c1ccc(NC(=S)N[C@@H](CC(=O)O)C(=O)N[C@@H](CC(=O)O)C(=O)N[C@@H](CC(=O)O)C(=O)N[C@@H](CC(=O)O)C(=O)O)cc1` (X1-DDDD-OH) here?
A: 10 nM

Q: With `NS(=O)(=O)c1ccc(N/C(S)=N\CCc2ccccn2)cc1` as the compound, how does the Ki read?
A: 40 nM

Q: For `CC(C)CC(/N=C(\S)Nc1ccc(S(N)(=O)=O)cc1)C(=O)NCC(=O)O` (configuration not stated), which Ki is on record?
A: 5 nM

Q: For `NS(=O)(=O)c1ccc(N/C(S)=N\CCc2c[nH]cn2)cc1`, which Ki is on record?
A: 33 nM

Q: With `NS(=O)(=O)c1ccc(NC(=S)NC(Cc2cnc[nH]2)C(=O)NCC(=O)O)cc1` (configuration not stated) as the compound, how does the Ki read?
A: 1 nM

Q: For `NS(=O)(=O)c1ccc(N/C(S)=N\c2cccc(C(=O)O)c2)cc1`, which Ki is on record?
A: 18 nM

Q: Which Ki does the source give for `NS(=O)(=O)c1ccc(N/C(S)=N\Cc2ccccn2)cc1` here?
A: 45 nM

Q: Which Ki does the source give for `NS(=O)(=O)c1ccc(N/C(S)=N\c2ccccc2C(=O)O)cc1` here?
A: 13 nM

Q: With `CC(C)C(/N=C(\S)Nc1ccc(S(N)(=O)=O)cc1)C(=O)O` (configuration not stated) as the compound, how does the Ki read?
A: 5 nM

Q: Which Ki does the source give for `NS(=O)(=O)c1ccc(N/C(S)=N\CCC(=O)O)cc1` here?
A: 11 nM

Q: For `NS(=O)(=O)c1ccc(NC(S)=NC(Cc2c[nH]cn2)C(=O)NC(Cc2ccccc2)C(=O)O)cc1` (configuration not stated), which Ki is on record?
A: 3 nM

Q: For `NS(=O)(=O)c1ccc(N/C(S)=N\c2ccc(C(=O)O)cc2)cc1`, which Ki is on record?
A: 16 nM

Q: For `NS(=O)(=O)c1ccc(NC(=S)NC(CC(=O)O)C(=O)NC(CC(=O)O)C(=O)O)cc1` (configuration not stated), which Ki is on record?
A: 15 nM

Q: With `CC(O)C(NC(=S)Nc1ccc(S(N)(=O)=O)cc1)C(=O)O` (configuration not stated) as the compound, how does the Ki read?
A: 4 nM

Q: For `NS(=O)(=O)c1ccc(NC(=S)NC(CCC(=O)O)C(=O)O)cc1` (configuration not stated), which Ki is on record?
A: 10 nM

Q: Which Ki does the source give for `NS(=O)(=O)c1ccc(NC(=S)NCC(=O)NCC(=O)O)cc1` here?
A: 15 nM

Q: Which Ki does the source give for `NS(=O)(=O)c1ccc(N/C(S)=N/C(Cc2c[nH]c3ccccc23)C(=O)O)cc1` (configuration not stated) here?
A: 11 nM

Q: With `NC(=O)CCC(NC(=S)Nc1ccc(S(N)(=O)=O)cc1)C(=O)O` (configuration not stated) as the compound, how does the Ki read?
A: 9 nM

Tested on: not listed separately
Experiment: physchem
Conditions: buffer, pH 7.4
Description: Solubility (in uM) in pH 7.40 at 25 degree C

Q: For `CCOc1ccc2nc(S(N)(=O)=O)sc2c1` [ETHOXZOLAMIDE], which solubility is on record?
A: 40 µM (≈ 10.3 µg/mL)

Target: Carbonic anhydrase 1 (Homo sapiens, UniProt P00915)
Experiment: not given
Conditions: not given

Sequence of Carbonic anhydrase 1 (P00915 whole entry): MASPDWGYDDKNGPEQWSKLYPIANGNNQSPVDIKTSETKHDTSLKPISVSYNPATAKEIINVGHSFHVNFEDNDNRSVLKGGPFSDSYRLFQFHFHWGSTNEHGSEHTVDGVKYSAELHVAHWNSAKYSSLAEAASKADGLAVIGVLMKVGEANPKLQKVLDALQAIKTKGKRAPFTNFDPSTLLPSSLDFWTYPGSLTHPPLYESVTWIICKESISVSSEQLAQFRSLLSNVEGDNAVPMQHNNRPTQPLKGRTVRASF

Q: For `NS(=O)(=O)c1ccc(N=C=S)cc1`, which Ki is on record?
A: 5000 nM

Q: Which Ki does the source give for `CSCCC(/N=C(\S)Nc1ccc(S(N)(=O)=O)cc1)C(=O)O` (configuration not stated) here?
A: 27 nM

Q: With `NS(=O)(=O)c1ccc(NC(=S)N[C@@H](CC(=O)O)C(=O)N[C@@H](CC(=O)O)C(=O)N[C@@H](CC(=O)O)C(=O)N[C@@H](CC(=O)O)C(=O)O)cc1` (X1-DDDD-OH) as the compound, how does the Ki read?
A: 59 nM

Q: For `NS(=O)(=O)c1ccc(N/C(S)=N\CCc2ccccn2)cc1`, which Ki is on record?
A: 124 nM

Q: With `CC(C)CC(/N=C(\S)Nc1ccc(S(N)(=O)=O)cc1)C(=O)NCC(=O)O` (configuration not stated) as the compound, how does the Ki read?
A: 20 nM

Q: For `NS(=O)(=O)c1ccc(N/C(S)=N\CCc2c[nH]cn2)cc1`, which Ki is on record?
A: 92 nM

Q: For `NS(=O)(=O)c1ccc(NC(=S)NC(Cc2cnc[nH]2)C(=O)NCC(=O)O)cc1` (configuration not stated), which Ki is on record?
A: 13 nM

Q: With `NS(=O)(=O)c1ccc(N/C(S)=N\c2cccc(C(=O)O)c2)cc1` as the compound, how does the Ki read?
A: 50 nM

Q: Which Ki does the source give for `NS(=O)(=O)c1ccc(N/C(S)=N\Cc2ccccn2)cc1` here?
A: 135 nM

Q: Which Ki does the source give for `NS(=O)(=O)c1ccc(N/C(S)=N\c2ccccc2C(=O)O)cc1` here?
A: 55 nM

Q: For `CC(C)C(/N=C(\S)Nc1ccc(S(N)(=O)=O)cc1)C(=O)O` (configuration not stated), which Ki is on record?
A: 23 nM

Q: For `NS(=O)(=O)c1ccc(N/C(S)=N\CCC(=O)O)cc1`, which Ki is on record?
A: 47 nM

Q: For `NS(=O)(=O)c1ccc(NC(S)=NC(Cc2c[nH]cn2)C(=O)NC(Cc2ccccc2)C(=O)O)cc1` (configuration not stated), which Ki is on record?
A: 21 nM

Q: For `NS(=O)(=O)c1ccc(N/C(S)=N\c2ccc(C(=O)O)cc2)cc1`, which Ki is on record?
A: 59 nM

Q: Which Ki does the source give for `NS(=O)(=O)c1ccc(NC(=S)NC(CC(=O)O)C(=O)NC(CC(=O)O)C(=O)O)cc1` (configuration not stated) here?
A: 50 nM

Q: With `CC(O)C(NC(=S)Nc1ccc(S(N)(=O)=O)cc1)C(=O)O` (configuration not stated) as the compound, how does the Ki read?
A: 30 nM

Q: Which Ki does the source give for `NS(=O)(=O)c1ccc(NC(=S)NC(CCC(=O)O)C(=O)O)cc1` (configuration not stated) here?
A: 38 nM

Q: Which Ki does the source give for `NS(=O)(=O)c1ccc(NC(=S)NCC(=O)NCC(=O)O)cc1` here?
A: 54 nM

Q: For `NS(=O)(=O)c1ccc(N/C(S)=N/C(Cc2c[nH]c3ccccc23)C(=O)O)cc1` (configuration not stated), which Ki is on record?
A: 47 nM

Q: For `NC(=O)CCC(NC(=S)Nc1ccc(S(N)(=O)=O)cc1)C(=O)O` (configuration not stated), which Ki is on record?
A: 40 nM

Species on record: Oryctolagus cuniculus
Experiment: not given
Conditions: not given
Remark: another data set of the same source

Q: Which “Delta IOP” value does the source give for `NS(=O)(=O)c1ccc(N/C(S)=N\CCc2c[nH]cn2)cc1` here?
A: 0 mmHg

Q: With `NS(=O)(=O)c1ccc(N/C(S)=N\Cc2ccccn2)cc1` as the compound, how does the “Delta IOP” value read?
A: 0.6 mmHg

Species on record: Oryctolagus cuniculus
Experiment: not given
Conditions: not given
Remark: another data set of the same source

Q: With `NS(=O)(=O)c1ccc(N/C(S)=N\c2ccccc2C(=O)O)cc1` as the compound, how does the “Delta IOP” value read?
A: 8 mmHg

Tested on: Oryctolagus cuniculus
Experiment: Tested in vivo for lowering IOP (Intraocular Pressure)in Normotensive Rabbits at pH 7.0 after treatment with 50 uL, activity at 90 minutes
Assay type: functional
Conditions: not given

Q: For `NS(=O)(=O)c1ccc(N/C(S)=N\c2ccccc2C(=O)O)cc1`, which “Delta IOP” value is on record?
A: 0.9 mmHg

Tested on: Oryctolagus cuniculus
Experiment: Tested in vivo for lowering IOP (Intraocular Pressure)in Normotensive Rabbits at pH 6.5 after treatment with 50 uL, activity at 30 minutes
Assay type: functional
Conditions: not given

Q: With `NS(=O)(=O)c1ccc(N/C(S)=N\CCc2c[nH]cn2)cc1` as the compound, how does the “Delta IOP” value read?
A: 3 mmHg

Tested on: Oryctolagus cuniculus
Experiment: Tested in vivo for lowering IOP (Intraocular Pressure)in Normotensive Rabbits at pH 6.5 after treatment with 50 uL, activity at 60 minutes
Assay type: functional
Conditions: not given

Q: For `NS(=O)(=O)c1ccc(N/C(S)=N\CCc2c[nH]cn2)cc1`, which “Delta IOP” value is on record?
A: 0.3 mmHg
